How the values were obtained:
[1] = Toxicity evaluation in healthy rats; format: in vivo; settings: for Clinical observations: femoral vein infusion
Method: Compound 1 was administered to healthy rats and the rats were evaluated for evidence of toxic side effects due to Compound 1. Experimental procedures and results are described below.
Two groups of 3 male rats each were given a 100 or 300 mg/kg dose of Compound 1 prepared in 0.9% saline solution. A third group of 3 rats were given saline alone. Doses were delivered via a femoral vein. The 100 mg/kg dose was delivered using a 10 mg/mL solution at a dose volume of 10 mL/kg and an infusion rate of 15 mL/hr. The 300 mg/kg dose was delivered using a 20 mg/mL solution at a dose volume of 15 mL/kg and an infusion rate of 15 mL/hr.

SCCVII tumor = experiment: Anti-cancer assay: SCCVII tumor volume in C3H mice; format: in vivo; settings: male C3H mice with subcutaneous SCCVII tumors; 1.15 mg/mL in 5% DMSO/water, intraperitoneal, q.o.d. on Days 0, 2 and 4 (3 doses)
Method: Mice with SCC VII tumors were treated with Compound 1, which has the following chemical structure.
The Treatment Composition was Compound 1 in a water/DMSO carrier. The Treatment Composition was prepared by dissolving 2.3 mg of Compound 1 in 0.1 mL of DMSO and mixing the resultant solution with 1.9 mL of water to provide a solution containing 1.15 mg/mL of Compound 1. The concentration of dimethylsulfoxide (DMSO) in the Treatment Composition was 5%.
Male C3H mice were obtained from Charles River Laboratories and maintained under specific pathogen-free conditions. Mice were housed five animals per cage and autoclaved food and water was provided ad libitum. Cages were located in rooms having a temperature of 65±2 degrees Fahrenheit, a humidity of 50%±5%, and a 12-hour day-and-night light cycle. Mice were 7-8 weeks old, with a body weight in the range of 22-25 grams, at the time inoculated with tumor cells.
Mice were inoculated subcutaneously with 5×10^5 SCCVII tumor cells in 0.05 mL Hank's solution on the back. […] The length and width of the tumors were measured with calipers immediately before treatment and three times a week thereafter until the tumor volume reached at least four times (4×) the original pre-treatment volume. Tumor volume (mm^3) was calculated according to the formula: Tumor Volume=π/6×length×width^2 Part II: Results

N[C@@H](CSCC(=O)N1CC([N+](=O)[O-])([N+](=O)[O-])C1)C(=O)O [Compound 1]
Toxicity (overall conclusion) ([1]; healthy male rats, 100 or 300 mg/kg in 0.9% saline via femoral vein, observed for 24 hours): no significant toxicity was observed
Clinical observations ([1]; rats, 100 mg/kg dose, observed for 24 hours): No notable clinical observations
Clinical observations ([1]; rats, 300 mg/kg dose, observed for 24 hours): pale during the first 3 hours post dose
Gross changes in the lungs at necropsy ([1]; rats, 100 or 300 mg/kg, necropsy after 24 hours): no gross changes in the lungs
Kidney observation at necropsy ([1]; rats, 100 or 300 mg/kg, necropsy after 24 hours, significance undetermined): Mottled kidneys were observed in most rats
Tumor volume versus untreated control (SCCVII tumor): smaller than tumors in mice that did not receive the Treatment Composition

— patent US9139519B2, “Organonitro thioether compounds and medical uses thereof” (EPICENTRX, INC., priority 2011, dated 2015)
